Data from the supplement of paper PMC10627819.

Assays:
[1] = tested on: B. subtilis 168; experiment: fitness (endpoint OD595 vs no drug) (fraction); higher = more growth
Procedure, shortened: (§1)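 Bacterial fitness was scored as optical density at the stationary-phase transition relative to the robust mean of no-drug control wells. Scores are capped at 1. The growth data were OD595 readings every 30 min for 14 h at 37 °C, background-subtracted against the first reading, from 384-well plates inoculated at OD595 0.01 in TSB, LB Lennox or CY.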

[2] = tested on: S. aureus DSM 20231; experiment: as above
Procedure, shortened: as §1

[3] = tested on: S. pneumoniae D39V; experiment: as above
Procedure, shortened: as §1

[4] = tested on: S. aureus Newman; experiment: as above
Procedure, shortened: as §1

[5] = tested on: B. subtilis 168; experiment: Bliss interaction score (quartile over a dose matrix) (fitness difference); higher = more antagonism (negative = synergy)
Procedure, shortened: (§2)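 Each plate was normalised to the robust mean of its own no-drug wells, using OD595 at entry into stationary phase, with values capped at 1. This normalised growth is the fitness value. The Bliss score is the difference between observed and product-expected fitness, with single-drug fitness inferred from the combination data and quartiles taken over technical, biological and donor/recipient replicates.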

[6] = tested on: S. aureus DSM 20231; experiment: as above
Procedure, shortened: as §2

[7] = tested on: S. pneumoniae D39V; experiment: as above
Procedure, shortened: as §2

[8] = tested on: S. aureus Newman; experiment: as above
Procedure, shortened: as §2
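For Bliss interaction score (quartile over a dose matrix) in this document: first quartile when negative (synergy) and third quartile when positive (antagonism).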

C[C@@H]1O[C@@H]1P(=O)(O)O [Fosfomycin] + Cc1ncc([N+](=O)[O-])n1CCO [Metronidazole]
fitness
Conditions | partner 0.625 µg/mL | partner 1.073 µg/mL | partner 1.25 µg/mL | partner 2.145 µg/mL | partner 2.5 µg/mL | partner 4.29 µg/mL | partner 5 µg/mL
[1], first compound 1.562 µg/mL | 0.72 | – | 0.687 | – | 0.701 | – | –
[1], first compound 3.124 µg/mL | 0.679 | – | 0.627 | – | 0.634 | – | –
[1], first compound 6.248 µg/mL | 0.583 | – | 0.573 | – | 0.481 | – | –
[2], first compound 0.781 µg/mL | 0.785 | – | 0.783 | – | 0.852 | – | –
[2], first compound 1.562 µg/mL | 0.605 | – | 0.624 | – | 0.682 | – | –
[2], first compound 3.124 µg/mL | 0.497 | – | 0.493 | – | 0.493 | – | –
[3], first compound 1.25 µg/mL | – | 0.957 | 0.975 | 0.94 | 0.992 | 0.95 | 1
[3], first compound 2.5 µg/mL | – | 0.929 | 0.97 | 0.798 | 0.965 | 0.914 | 0.995
[3], first compound 5 µg/mL | – | 0.87 | 0.857 | 0.893 | 0.886 | 0.864 | 0.847
[4], first compound 0.781 µg/mL | 0.58 | – | 0.636 | – | 0.612 | – | –
[4], first compound 1.562 µg/mL | 0.502 | – | 0.511 | – | 0.453 | – | –
[4], first compound 3.124 µg/mL | 0.133 | – | 0.079 | – | 0.0859 | – | –

fitness, [4], one replicate
Conditions | first compound 0.781 µg/mL | first compound 1.562 µg/mL | first compound 3.124 µg/mL
partner 0.781 µg/mL | 0.587 | 0.579 | 0.211
partner 1.562 µg/mL | 0.565 | 0.538 | 0.236
partner 3.124 µg/mL | 0.584 | 0.546 | 0.272

Conditions | Bliss interaction score
[5] | 0.0663
[6] | -0.0362
[7] | 0.0507
[8] | -0.0452

C[C@@H]1O[C@@H]1P(=O)(O)O [Fosfomycin] + Cc1onc(-c2ccccc2)c1C(=O)N[C@@H]1C(=O)N2[C@@H]1SC(C)(C)[C@@H]2C(=O)O [Oxacillin]
Conditions | fitness
[1], first compound 1.562 µg/mL, partner 0.002 µg/mL | 0.65
[1], first compound 1.562 µg/mL, partner 0.004 µg/mL | 0.696
[1], first compound 1.562 µg/mL, partner 0.008 µg/mL | 0.568
[1], first compound 3.124 µg/mL, partner 0.002 µg/mL | 0.566
[1], first compound 3.124 µg/mL, partner 0.004 µg/mL | 0.546
[1], first compound 3.124 µg/mL, partner 0.008 µg/mL | 0.51
[1], first compound 6.248 µg/mL, partner 0.002 µg/mL | 0.358
[1], first compound 6.248 µg/mL, partner 0.004 µg/mL | 0.33
[1], first compound 6.248 µg/mL, partner 0.008 µg/mL | 0.281
[2], first compound 0.781 µg/mL, partner 0.0156 µg/mL | 0.539
[2], first compound 0.781 µg/mL, partner 0.0312 µg/mL | 0.504
[2], first compound 0.781 µg/mL, partner 0.0625 µg/mL | 0.489
[2], first compound 1.562 µg/mL, partner 0.0156 µg/mL | 0.442
[2], first compound 1.562 µg/mL, partner 0.0312 µg/mL | 0.459
[2], first compound 1.562 µg/mL, partner 0.0625 µg/mL | 0.362
[2], first compound 3.124 µg/mL, partner 0.0156 µg/mL | 0.402
[2], first compound 3.124 µg/mL, partner 0.0312 µg/mL | 0.335
[2], first compound 3.124 µg/mL, partner 0.0625 µg/mL | 0.0751
[3], first compound 1.25 µg/mL, partner 0.005 µg/mL | ≥ 1
[3], first compound 1.25 µg/mL, partner 0.01 µg/mL | 0.996
[3], first compound 1.25 µg/mL, partner 0.02 µg/mL | 0.916
[3], first compound 1.25 µg/mL, partner 0.04 µg/mL | 0.3
[3], first compound 2.5 µg/mL, partner 0.005 µg/mL | 0.982
[3], first compound 2.5 µg/mL, partner 0.01 µg/mL | 0.913
[3], first compound 2.5 µg/mL, partner 0.02 µg/mL | 0.843
[3], first compound 2.5 µg/mL, partner 0.04 µg/mL | 0.181
[3], first compound 5 µg/mL, partner 0.005 µg/mL | 0.85
[3], first compound 5 µg/mL, partner 0.04 µg/mL | 0.0702
[4], first compound 0.781 µg/mL, partner 0.0156 µg/mL | 0.606
[4], first compound 0.781 µg/mL, partner 0.0312 µg/mL | 0.563
[4], first compound 0.781 µg/mL, partner 0.0625 µg/mL | 0.49
[4], first compound 1.562 µg/mL, partner 0.0156 µg/mL | 0.475
[4], first compound 1.562 µg/mL, partner 0.0312 µg/mL | 0.421
[4], first compound 1.562 µg/mL, partner 0.0625 µg/mL | 0.279
[4], first compound 3.124 µg/mL, partner 0.0156 µg/mL | 0.145
[4], first compound 3.124 µg/mL, partner 0.0312 µg/mL | 0.0796
[4], first compound 3.124 µg/mL, partner 0.0625 µg/mL | 0.0515

fitness, [1], one replicate
Conditions | partner 0.0078 µg/mL | partner 0.0155 µg/mL | partner 0.031 µg/mL | partner 0.075 µg/mL | partner 0.15 µg/mL | partner 0.3 µg/mL
first compound 1.562 µg/mL | 0.807 | 0.835 | 0.797 | 0.339 | 0.0497 | 0.0455
first compound 3.124 µg/mL | 0.663 | 0.68 | 0.613 | 0.164 | 0.0172 | 0.0362
first compound 6.248 µg/mL | 0.548 | 0.531 | 0.504 | 0.0968 | 0.0104 | 0.0381

Conditions | Bliss interaction score
[5] | -0.0577
[6] | -0.11
[7] | -0.154
[8] | -0.0668
